These compounds were tested on rabbit skeletal myofibrils (fast skeletal myofibrils) (assay: Activation of fast skeletal myofibrils (PUMA assay, PK/LDH-coupled ATPase at pCa25)). Details: AC1.4 determined according to the procedure of Example 39; reported as class symbols.
Format: biochemical
Procedure, shortened: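 ATPase activity of Triton-washed rabbit skeletal myofibrils, roughly 90% fast fibres, tracked by NADH loss at 340 nm through a PK/LDH-coupled ADP-regenerating system. Calcium set to 25% of maximal activity (pCa25), in PIPES 12 mM pH 6.8 with 2 mM MgCl2 and 1 mM DTT; AC1.4 reported.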

Compound | Mean AC1.4
Cc1ccccc1C(C)(C)CNc1ccc(-c2ccc3[nH]nc(N)c3c2)nn1 [[6-(3-amino(1H-indazol-5-yl))pyridazin-3-yl][2-methyl-2-(2-methylphenyl)propyl]amine] | A (A=<1 uM)
Cc1ccc(C(C)(C)CNc2ccc(-c3ccc4[nH]nc(N)c4c3)nn2)cc1 [[6-(3-amino(1H-indazol-5-yl))pyridazin-3-yl][2-methyl-2-(4-methylphenyl)propyl]amine] | A (A=<1 uM)
COCc1ccccc1C(C)(C)CNc1ccc(-c2ccc3[nH]nc(N)c3c2)nn1 [[6-(3-amino(1H-indazol-5-yl))pyridazin-3-yl]{2-[2-(methoxymethyl)phenyl]-2-methylpropyl}amine] | C (C=10-20 uM)
CC(C)(CNc1ccc(-c2ccc3[nH]nc(N)c3c2)nn1)c1cccc(CN)c1 [[6-(3-amino(1H-indazol-5-yl))pyridazin-3-yl]{2-[3-(aminomethyl)phenyl]-2-methylpropyl}amine] | C (C=10-20 uM)
CC(C)(CNc1ccc(-c2ccc3[nH]nc(N)c3c2)nn1)c1ccc(CN)cc1 [[6-(3-amino(1H-indazol-5-yl))pyridazin-3-yl]{2-[4-(aminomethyl)phenyl]-2-methylpropyl}amine] | D (D=>20 uM)
Nc1n[nH]c2ccc(-c3ccc(NCC4(c5ccccc5F)CCC4)nn3)cc12 [[6-(3-amino(1H-indazol-5-yl))pyridazin-3-yl]{[(2-fluorophenyl)cyclobutyl]meth-yl}amine] | A (A=<1 uM)
Nc1n[nH]c2ccc(-c3ccc(NCC4(c5ccccc5F)CCCC4)nn3)cc12 [[6-(3-amino(1H-indazol-5-yl))pyridazin-3-yl]{[(2-fluorophenyl)cyclopentyl]meth-yl}amine] | A (A=<1 uM)
Nc1n[nH]c2ccc(-c3ccc(NCC4(c5ccccc5F)CC4)nn3)cc12 [[6-(3-amino(1H-indazol-5-yl))pyridazin-3-yl]{[(2-fluorophenyl)cyclopropyl]meth-yl}amine] | A (A=<1 uM)
Nc1n[nH]c2ccc(-c3ccc(NCC4(c5ncccc5F)CCC4)nn3)cc12 [[6-(3-amino(1H-indazol-5-yl))pyridazin-3-yl]{[(3-fluoro(2-pyridyl))cyclobutyl]methyl}amine] | A (A=<1 uM)
Nc1n[nH]c2ccc(-c3ccc(NCC4(c5ccc(F)cc5)CCC4)nn3)cc12 [[6-(3-amino(1H-indazol-5-yl))pyridazin-3-yl]{[(4-fluorophenyl)cyclobutyl]meth-yl}amine] | A (A=<1 uM)
Nc1n[nH]c2ccc(-c3ccc(NCC4(c5ccc(F)cc5)CCCCC4)nn3)cc12 [[6-(3-amino(1H-indazol-5-yl))pyridazin-3-yl]{[(4-fluorophenyl)cyclohexyl]meth-yl}amine] | A (A=<1 uM)
Nc1n[nH]c2ccc(-c3ccc(NCC4(c5ccc(F)cc5)CCCC4)nn3)cc12 [[6-(3-amino(1H-indazol-5-yl))pyridazin-3-yl]{[(4-fluorophenyl)cyclopentyl]meth-yl}amine] | A (A=<1 uM)
Nc1n[nH]c2ccc(-c3ccc(NCC4(c5ccc(F)cc5)CC4)nn3)cc12 [[6-(3-amino(1H-indazol-5-yl))pyridazin-3-yl]{[(4-fluorophenyl)cyclopropyl]meth-yl}amine] | A (A=<1 uM)
Nc1n[nH]c2ccc(-c3ccc(NCC4(c5ccc(F)cn5)CCC4)nn3)cc12 [[6-(3-amino(1H-indazol-5-yl))pyridazin-3-yl]{[(5-fluoro(2-pyridyl))cyclobutyl]methyl}amine] | A (A=<1 uM)
CC(C)(CNc1ccc(-c2ccc3c(N)n[nH]c3c2)nn1)c1ncccc1F [[6-(3-amino(1H-indazol-6-yl))pyridazin-3-yl][2-(3-fluoro(2-pyridyl))-2-methylpropyl]amine] | B (B=1-10 uM)
CC(C)(CNc1ccc(-c2ccc3c(N)n[nH]c3c2)nn1)c1ccc(F)cc1 [[6-(3-amino(1H-indazol-6-yl))pyridazin-3-yl][2-(4-fluorophenyl)-2-methylpropyl]amine] | A (A=<1 uM)
CC(C)(CNc1ccc(-c2ccc3c(N)n[nH]c3c2)nn1)c1ccc(F)cn1 [[6-(3-amino(1H-indazol-6-yl))pyridazin-3-yl][2-(5-fluoro(2-pyridyl))-2-methylpropyl]amine] | C (C=10-20 uM)
CC(C)(CNc1ccc(-c2cccc3c(N)n[nH]c23)nn1)c1ccc(F)cc1 [[6-(3-amino(1H-indazol-7-yl))pyridazin-3-yl][2-(4-fluorophenyl)-2-methylpropyl]amine] | B (B=1-10 uM)
Cn1nc(N)c2cc(-c3ccc(NCC(C)(C)c4ccc(F)cc4)nn3)ccc21 [[6-(3-amino-1-methyl(1H-indazol-5-yl))pyridazin-3-yl][2-(4-fluorophenyl)-2-methylpropyl]amine] | B (B=1-10 uM)
CC(C)(CNc1ccc(-c2ccc3onc(N)c3c2)nn1)c1ccc(F)cc1 [[6-(3-aminobenzo[3,4-d]isoxazol-5-yl)pyridazin-3-yl][2-(4-fluorophenyl)-2-methylpropyl]amine] | B (B=1-10 uM)
CC(C)(CNc1ccc(-c2ccc3c(N)noc3c2)nn1)c1ccc(F)cc1 [[6-(3-aminobenzo[d]isoxazol-6-yl)pyridazin-3-yl][2-(4-fluorophenyl)-2-methylpropyl]amine] | A (A=<1 uM)
CC(C)(CNc1ccc(-c2cccc(N)c2)nn1)c1ccc(F)cc1 [[6-(3-aminophenyl)pyridazin-3-yl][2-(4-fluorophenyl)-2-methylpropyl]amine] | A (A=<1 uM)
Nc1cccc(-c2ccc(NCC3(c4ncccc4F)CCC3)nn2)c1 [[6-(3-aminophenyl)pyridazin-3-yl]{[(3-fluoro(2-pyridyl))cyclobutyl]methyl}amine] | A (A=<1 uM)
CC(C)(CNc1ccc(-c2cccc(Cl)c2)nn1)c1ccc(F)cc1 [[6-(3-chlorophenyl)pyridazin-3-yl][2-(4-fluorophenyl)-2-methylpropyl]amine] | A (A=<1 uM)
CCc1n[nH]c2ccc(-c3ccc(NCC(C)(C)c4ccc(F)cc4)nn3)cc12 [[6-(3-ethyl(1H-indazol-5-yl))pyridazin-3-yl][2-(4-fluorophenyl)-2-methylpropyl]amine] | B (B=1-10 uM)

Same assay, conditions: median AC1.4 class, procedure of Example 39

Compound | Mean AC1.4
Nc1n[nH]c2ccc(-c3ccc(NC4(c5ncccc5F)CCC4)nn3)cc12 [[6-(3-amino(1H-indazol-5-yl))pyridazin-3-yl][(3-fluoro(2-pyridyl))cyclobutyl]amine] | B (B=1-10 uM)
Nc1n[nH]c2ccc(-c3ccc(NC[C@]4(c5ncccc5F)C[C@H](F)C4)nn3)cc12 [[6-(3-amino(1H-indazol-5-yl))pyridazin-3-yl]{[3-fluoro-1-(3-fluoro(2-pyridyl))cyclobutyl]methyl}amine] | A (A=<1 uM)
Fc1cccnc1C1(CNc2ccc(-c3ncccc3Cl)nn2)CCC1 [[6-(3-chloro(2-pyridyl))pyridazin-3-yl]{[(3-fluoro(2-pyridyl))cyclobutyl]methyl}amine] | C (C=10-20 uM)

Source: patent publication US10076519B2 (CYTOKINETICS, INC., priority 2010, dated 2018)
